Drawing on US20240109900A1, “AZABICYCLIC SHP2 INHIBITORS” (IRBM S.P.A., priority 2021, published 2024), this text covers IC50 for 21 compounds.

pIC50: −log10 of the molar value.

For experiment [1], the system named is ERK phosphorylation in KYSE-520 cells. As to the kind of experiment: Phospho-ERK cellular assay. The experiment is classed as cell-based. The conditions noted are these: Homo sapiens, KYSE-520, 2 h, KYSE-520 cells, 2 h at 37° C., phospho-ERK1/2 (Thr202/Tyr204) TR-FRET; read-out: PERK IC50. A digest of the protocol: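 TR-FRET read-out of ERK1/2 Thr202/Tyr204 phosphorylation was taken after overnight antibody incubation at room temperature. Before that, KYSE-520 cells were treated 2 h at 37 °C with compound dilutions and lysed 30 min. Percent inhibition relative to vehicle and cell-free wells was fitted four-parametrically to give IC50.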
For orientation: In TR-FRET formats the signal depends on donor and acceptor labels being close together.

Experiment [2] deals with SHP-2 enzyme (Met1-Leu525) (Homo sapiens (Human), UniProt Q06124). As to the kind of experiment: SHP2 inhibition enzymatic assay. The conditions noted are these: 0.5 nM SHP-2 activated by 500 nM IRS1 peptide, 75 μM DiFMUP substrate; read-out: SHP2wt-IC50. The experiment is classed as biochemical. A digest of the protocol:
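SHP-2 (Met1-Leu525), 0.5 nM, activated with 500 nM IRS1 bis-phosphopeptide, preincubated 30 min with compounds in HEPES pH 7.2 buffer with 5 mM DTT. 75 μM DiFMUP added for 30 min at room temperature, stopped with bpV; fluorescence read. IC50 from four-parameter logistic fit of % inhibition.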

Chain of SHP-2 enzyme (Met1-Leu525) (Q06124 1-525): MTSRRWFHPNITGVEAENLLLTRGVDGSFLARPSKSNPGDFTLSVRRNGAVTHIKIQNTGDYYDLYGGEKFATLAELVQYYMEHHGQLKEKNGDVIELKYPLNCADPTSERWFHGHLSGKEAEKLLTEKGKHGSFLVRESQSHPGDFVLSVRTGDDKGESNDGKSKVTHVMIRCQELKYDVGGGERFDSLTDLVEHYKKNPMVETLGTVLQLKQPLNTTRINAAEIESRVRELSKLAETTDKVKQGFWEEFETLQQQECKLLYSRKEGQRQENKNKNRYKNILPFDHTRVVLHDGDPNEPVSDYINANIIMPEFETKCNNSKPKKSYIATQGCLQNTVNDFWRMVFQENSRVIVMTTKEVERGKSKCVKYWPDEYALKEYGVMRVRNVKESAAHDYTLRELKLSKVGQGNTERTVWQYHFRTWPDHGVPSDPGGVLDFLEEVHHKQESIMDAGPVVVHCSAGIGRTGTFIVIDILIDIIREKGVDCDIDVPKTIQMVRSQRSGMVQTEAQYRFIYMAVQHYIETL

With `NC[C@]1(c2ccccc2F)[C@@H]2CCN(c3cnc4c(-c5cccn6nccc56)n[nH]c4n3)C[C@@H]21` [Example 131, ((1S,6R,7R)-7-(2-fluorophenyl)-3-(3-(pyrazolo[1,5-a]pyridin-4-yl)-1H-pyrazolo[3,4-b]pyrazin-6-yl)-3-azabicyclo[4.1.0]heptan-7-yl)methanamine], the negative logarithm of the IC50 (pIC50) in experiment [1] is above 6.00; in experiment [2] it was above 6.30.

As for `NC[C@]1(c2ccccc2F)[C@@H]2CCN(c3cnc4c(-c5ccnc6c(F)cccc56)n[nH]c4n3)C[C@@H]21` [Example 132, ((1S,6R,7R)-7-(2-fluorophenyl)-3-(3-(8-fluoroquinolin-4-yl)-1H-pyrazolo[3,4-b]pyrazin-6-yl)-3-azabicyclo[4.1.0]heptan-7-yl)methanamine], the values for the pIC50 in experiment [1] and in experiment [2] were above 6.00 and above 6.30, respectively.

As for `Cc1cc([C@@]2(CN)[C@@H]3CCN(c4cnc5c(-c6ccc(C(F)F)c7ncccc67)n[nH]c5n4)C[C@@H]32)no1` [Example 133, ((1S,6R,7S)-3-(3-(8-(difluoromethyl)quinolin-5-yl)-1H-pyrazolo[3,4-b]pyrazin-6-yl)-7-(5-methylisoxazol-3-yl)-3-azabicyclo[4.1.0]heptan-7-yl)methanamine], the negative logarithm of the IC50 (pIC50) is above 6.00 in experiment [1] and above 6.30 in experiment [2].

Regarding `Cc1cc([C@@]2(CN)[C@@H]3CCN(c4cnc5c(-c6ccc(C(C)O)c7ncccc67)n[nH]c5n4)C[C@@H]32)no1` (stereo partly drawn) [Example 134, 1-(5-(6-((1S,6R,7S)-7-(aminomethyl)-7-(5-methylisoxazol-3-yl)-3-azabicyclo[4.1.0]heptan-3-yl)-1H-pyrazolo[3,4-b]pyrazin-3-yl)quinolin-8-yl)ethan-1-ol], the values for the pIC50 in experiment [1] and in experiment [2] were above 6.00 and above 6.30, respectively.

For the compound `NC[C@]1(c2ccccc2F)[C@@H]2CCN(c3ncc(Sc4ccnc(N)c4Cl)n4cncc34)C[C@@H]21` [Example 135, 4-((8-((1S,6R,7R)-7-(aminomethyl)-7-(2-fluorophenyl)-3-azabicyclo[4.1.0]heptan-3-yl)imidazo[1,5-a]pyrazin-5-yl)thio)-3-chloropyridin-2-amine], the negative-log IC50 (pIC50) was below 5.30 in experiment [1] and below 5.52 in experiment [2].

With `NC[C@]1(c2ccccc2F)[C@@H]2CCN(c3cnc4c(-c5ccn6nccc6c5)n[nH]c4n3)C[C@@H]21` [Example 136, ((1S,6R,7R)-7-(2-fluorophenyl)-3-(3-(pyrazolo[1,5-a]pyridin-5-yl)-1H-pyrazolo[3,4-b]pyrazin-6-yl)-3-azabicyclo[4.1.0]heptan-7-yl)methanamine], the figures for the pIC50 in experiment [1] and in experiment [2] were above 6.00 and above 6.30, respectively.

For `CC(C)(O)c1ccc(-c2n[nH]c3nc(N4CC[C@@H]5[C@H](C4)[C@@]5(CN)c4ccccc4F)cnc23)c2cccnc12` [Example 137, 2-(5-(6-((1S,6R,7R)-7-(aminomethyl)-7-(2-fluorophenyl)-3-azabicyclo[4.1.0]heptan-3-yl)-1H-pyrazolo[3,4-b]pyrazin-3-yl)quinolin-8-yl)propan-2-ol], the results for the negative logarithm of the IC50 (pIC50) in experiment [1] and in experiment [2] were above 6.00 and above 6.30, respectively.

Regarding `CC(C)Oc1ccc(-c2n[nH]c3nc(N4CC[C@@H]5[C@H](C4)[C@@]5(CN)c4ccccc4F)cnc23)c2cccnc12` [Example 138, ((1S,6R,7R)-7-(2-fluorophenyl)-3-(3-(8-isopropoxyquinolin-5-yl)-1H-pyrazolo[3,4-b]pyrazin-6-yl)-3-azabicyclo[4.1.0]heptan-7-yl)methanamine], the results for the negative-log IC50 (pIC50) in experiment [1] and in experiment [2] were above 6.00 and above 6.30, respectively.

For the compound `NC[C@]1(c2ccccc2F)[C@@H]2CCN(c3cnc4c(-c5ccc(C6CC6)c6ncccc56)n[nH]c4n3)C[C@@H]21` [Example 139, ((1S,6R,7R)-3-(3-(8-cyclopropylquinolin-5-yl)-1H-pyrazolo[3,4-b]pyrazin-6-yl)-7-(2-fluorophenyl)-3-azabicyclo[4.1.0]heptan-7-yl)methanamine], the pIC50 in experiment [1] is above 6.00; in experiment [2] it was above 6.30.

On to `NC[C@]1(c2ncccc2F)[C@@H]2CCN(c3cnc4c(-c5cccn6nccc56)n[nH]c4n3)C[C@@H]21` [Example 140, ((1S,6R,7S)-7-(3-fluoropyridin-2-yl)-3-(3-(pyrazolo[1,5-a]pyridin-4-yl)-1H-pyrazolo[3,4-b]pyrazin-6-yl)-3-azabicyclo[4.1.0]heptan-7-yl)methanamine], for which the negative logarithm of the IC50 (pIC50) in experiment [1] is above 6.00; in experiment [2], above 6.30.

As for `NC[C@]1(c2ccccc2F)[C@@H]2CCN(c3cnc4c(-c5ccc6ncccc6c5)n[nH]c4n3)C[C@@H]21` [Example 141, ((1S,6R,7R)-7-(2-fluorophenyl)-3-(3-(quinolin-6-yl)-1H-pyrazolo[3,4-b]pyrazin-6-yl)-3-azabicyclo[4.1.0]heptan-7-yl)methanamine], the values for the negative logarithm of the IC50 (pIC50) in experiment [1] and in experiment [2] were above 6.00 and above 6.30, respectively.

In the case of `CC(O)c1ccc(-c2n[nH]c3nc(N4CC[C@@H]5[C@H](C4)[C@@]5(CN)c4ccccc4F)cnc23)c2cccnc12` (stereo partly drawn) [Example 142, 1-(5-(6-((1S,6R,7R)-7-(aminomethyl)-7-(2-fluorophenyl)-3-azabicyclo[4.1.0]heptan-3-yl)-1H-pyrazolo[3,4-b]pyrazin-3-yl)quinolin-8-yl)ethan-1-ol], the results for the pIC50 in experiment [1] and in experiment [2] were above 6.00 and above 6.30, respectively.

With `NC[C@]1(c2ccccc2F)[C@@H]2CCN(c3cnc4c(-c5cccc6nccn56)n[nH]c4n3)C[C@@H]21` [Example 143, ((1S,6R,7R)-7-(2-fluorophenyl)-3-(3-(imidazo[1,2-a]pyridin-5-yl)-1H-pyrazolo[3,4-b]pyrazin-6-yl)-3-azabicyclo[4.1.0]heptan-7-yl)methanamine], the pIC50 is above 6.00 in experiment [1] and above 6.30 in experiment [2].

In the case of `NC[C@]1(c2ncccc2F)[C@@H]2CCN(c3cnc4c(-c5ccc(OC(F)(F)F)c6ncccc56)n[nH]c4n3)C[C@@H]21` [Example 144, ((1S,6R,7S)-7-(3-fluoropyridin-2-yl)-3-(3-(8-(trifluoromethoxy)quinolin-5-yl)-1H-pyrazolo[3,4-b]pyrazin-6-yl)-3-azabicyclo[4.1.0]heptan-7-yl)methanamine], the negative-log IC50 (pIC50) in experiment [1] was above 6.00; in experiment [2], above 6.30.

Take `Cc1c(-c2n[nH]c3nc(N4CC[C@@H]5[C@H](C4)[C@@]5(CN)c4ccccc4F)cnc23)ccc2nn(C)cc12` [Example 145, ((1S,6R,7R)-3-(3-(2,4-dimethyl-2H-indazol-5-yl)-1H-pyrazolo[3,4-b]pyrazin-6-yl)-7-(2-fluorophenyl)-3-azabicyclo[4.1.0]heptan-7-yl)methanamine]: the values for the pIC50 in experiment [1] and in experiment [2] were above 6.00 and above 6.30, respectively.

Regarding `COc1ccc(-c2n[nH]c3nc(N4CC[C@@H]5[C@H](C4)[C@@]5(CN)c4ccccc4F)cnc23)c2cccnc12` [Example 146, ((1S,6R,7R)-7-(2-fluorophenyl)-3-(3-(8-methoxyquinolin-5-yl)-1H-pyrazolo[3,4-b]pyrazin-6-yl)-3-azabicyclo[4.1.0]heptan-7-yl)methanamine], the results for the negative-log IC50 (pIC50) in experiment [1] and in experiment [2] were above 6.00 and above 6.30, respectively.

Turning to `COc1cc(-c2n[nH]c3nc(N4CC[C@@H]5[C@H](C4)[C@@]5(CN)c4ccccc4F)cnc23)c2ccnn2c1` [Example 147, ((1S,6R,7R)-7-(2-fluorophenyl)-3-(3-(6-methoxypyrazolo[1,5-a]pyridin-4-yl)-1H-pyrazolo[3,4-b]pyrazin-6-yl)-3-azabicyclo[4.1.0]heptan-7-yl)methanamine], the negative-log IC50 (pIC50) in experiment [1] was above 6.00; in experiment [2] it was above 6.30.

In the case of `Cc1cc([C@@]2(CN)[C@@H]3CCN(c4cnc5c(-c6cncc7ncccc67)n[nH]c5n4)C[C@@H]32)no1` [Example 148, ((1S,6R,7S)-3-(3-(1,7-naphthyridin-5-yl)-1H-pyrazolo[3,4-b]pyrazin-6-yl)-7-(5-methylisoxazol-3-yl)-3-azabicyclo[4.1.0]heptan-7-yl)methanamine], the negative-log IC50 (pIC50) in experiment [1] is above 6.00; in experiment [2], above 6.30.

On to `COc1ccc2cc(-c3n[nH]c4nc(N5CC[C@@H]6[C@H](C5)[C@@]6(CN)c5cc(C)on5)cnc34)ccc2n1` [Example 149, ((1S,6R,7S)-3-(3-(2-methoxyquinolin-6-yl)-1H-pyrazolo[3,4-b]pyrazin-6-yl)-7-(5-methylisoxazol-3-yl)-3-azabicyclo[4.1.0]heptan-7-yl)methanamine], for which the negative logarithm of the IC50 (pIC50) in experiment [1] is above 6.00; in experiment [2], above 6.30.

With `Cc1cc([C@@]2(CN)[C@@H]3CCN(c4cnc5c(-c6ccc7nc(C(F)(F)F)ccc7c6)n[nH]c5n4)C[C@@H]32)no1` [Example 150, ((1S,6R,7S)-7-(5-methylisoxazol-3-yl)-3-(3-(2-(trifluoromethyl)quinolin-6-yl)-1H-pyrazolo[3,4-b]pyrazin-6-yl)-3-azabicyclo[4.1.0]heptan-7-yl)methanamine], the negative logarithm of the IC50 (pIC50) is above 6.00 in experiment [1] and above 6.30 in experiment [2].

Turning to `COc1ccc2cc(-c3n[nH]c4nc(N5CC[C@@H]6[C@H](C5)[C@@]6(CN)c5cc(C)on5)cnc34)cnc2c1` [Example 151, ((1S,6R,7S)-3-(3-(7-methoxyquinolin-3-yl)-1H-pyrazolo[3,4-b]pyrazin-6-yl)-7-(5-methylisoxazol-3-yl)-3-azabicyclo[4.1.0]heptan-7-yl)methanamine], the negative-log IC50 (pIC50) is above 6.00 in experiment [1] and above 6.30 in experiment [2].

A word on the pIC50: it is −log10 of the IC50, conventionally taken in molar units.
